From US10633397B2, “Substituted polycyclic pyridone derivatives and prodrugs thereof” (priority 2015, dated 2020)

Assays:
[1] = target: cap-dependent endonuclease (RNP fraction, PB1-PB2-PA complex) (Influenza A virus, UniProt P15659); assay: Measurement of cap-dependant endonuclease (CEN) inhibitory activity; type: biochemical; details: RNP from A/WSN/33 virus, room temperature 60 minutes; read-out: CEN_IC50
influenza virus = assay: CPE inhibitory effect confirming assay; type: cell-based; details: unidentified influenza virus, 72 h, read-out: CPE_EC50

Structure (SMILES) | IC50 [1] | EC50 (influenza virus)
O=C1c2c(O)c(=O)ccn2N([C@H]2c3ccccc3CSc3ccccc32)[C@@H]2CCOCCN12 [III-8] | 2.81 nM | 7.18 nM
O=C1c2c(O)c(=O)ccn2N([C@@H]2c3ccccc3SCc3c2ccc(F)c3F)[C@@H]2CC(F)(F)CCN12 [III-21] | 4.06 nM | 2.7 nM
O=C1c2c(O)c(=O)ccn2N([C@@H]2c3ccccc3SCc3c(F)cc(F)cc32)[C@@H]2COCCN12 [III-11] | 13.1 nM | 9.98 nM
CC1(C)CC[C@@H]2N(C1)C(=O)c1c(O)c(=O)ccn1N2[C@@H]1c2ccccc2SCc2c1ccc(F)c2F [III-35] | 3.86 nM | 3 nM
O=C1c2c(O)c(=O)ccn2N([C@@H]2c3cccc(F)c3SCc3cccc(F)c32)[C@@H]2COCCN12 [III-13] | 3.94 nM | 4 nM
O=C1c2c(O)c(=O)ccn2N([C@@H]2c3ccccc3SCc3c2ccc(F)c3F)[C@@H]2C[C@@H](C(F)(F)F)CCN12 [III-26] | 1.63 nM | 3 nM
O=C1c2c(O)c(=O)ccn2N([C@@H]2c3ccccc3SCc3c2cccc3C(F)(F)F)[C@@H]2COCCN12 [III-17] | 3.89 nM | 8.14 nM
O=C1c2c(O)c(=O)ccn2N([C@H]2c3ccc(F)cc3CSc3ccccc32)[C@@H]2CCCCN12 [III-54] | – | 1.18 nM
CO[C@@H]1CCN2C(=O)c3c(O)c(=O)ccn3N([C@@H]3c4ccccc4SCc4c3ccc(F)c4F)[C@@H]2C1 [III-39] | 2.75 nM | 2.81 nM
O=C1c2c(O)c(=O)ccn2N([C@@H]2c3ccccc3SCc3cccc(F)c32)[C@@H]2CC3(CCN12)CC3 [III-48] | 3.49 nM | 3.57 nM
C[C@H]1COC[C@@H]2N1C(=O)c1c(O)c(=O)ccn1N2[C@H]1c2ccc(F)cc2CSc2ccccc21 [III-30] | – | 3.01 nM
O=C1c2c(O)c(=O)ccn2N([C@H]2c3ccccc3CSc3ccccc32)[C@@H]2CSCCN12 [III-5] | 10.8 nM | 4.28 nM
O=C1c2c(O)c(=O)ccn2N([C@@H]2c3ccccc3SCc3c(Cl)cccc32)[C@@H]2COCCN12 [III-4] | 2.81 nM | 2.08 nM
O=C1c2c(O)c(=O)ccn2N([C@@H]2c3ccccc3SCc3cccc(Cl)c32)[C@@H]2COCCN12 [III-20] | – | 4 nM
O=C1c2c(O)c(=O)ccn2N([C@H]2c3ccc(F)cc3CSc3ccccc32)[C@@H]2C[C@@H](C(F)(F)F)CCN12 [III-57] | 4.27 nM | 3.47 nM
O=C1c2c(O)c(=O)ccn2N([C@@H]2c3ccccc3SCc3cccc(F)c32)[C@@H]2CCCCN12 [III-53] | 2.46 nM | 3 nM
O=C1c2c(O)c(=O)ccn2N([C@H]2c3ccccc3CSc3ccccc32)[C@@H]2CC3(CCN12)OCCO3 [III-7] | 8.09 nM | 11.5 nM
Cc1cccc2c1[C@H](N1[C@@H]3COCCN3C(=O)c3c(O)c(=O)ccn31)c1ccccc1SC2 [III-18] | – | 3.28 nM
O=C1c2c(O)c(=O)ccn2N([C@H]2c3ccc(F)cc3CSc3ccccc32)[C@@H]2CC3(CCN12)CC3 [III-55] | 2.13 nM | 3.45 nM

Structure (SMILES) | IC50 [1] | EC50 (influenza virus)
O=C1c2c(O)c(=O)ccn2N([C@H]2c3cc(Cl)ccc3CSc3ccccc32)[C@@H]2COCCN12 [III-15] | 37.3 nM | 16.9 nM
O=C1c2c(O)c(=O)ccn2N([C@@H]2c3ccccc3SCc3c2ccc(F)c3F)[C@@H]2C[C@H](C(F)(F)F)CCN12 [III-38] | 8.26 nM | 4.04 nM
O=C1c2c(O)c(=O)ccn2N([C@@H]2c3ccccc3SCc3cccc(F)c32)[C@@H]2CC(F)(F)CCN12 [III-44] | 3.81 nM | 3.68 nM
C[C@@H]1CC[C@@H]2N(C1)C(=O)c1c(O)c(=O)ccn1N2[C@H]1c2ccc(F)cc2CSc2ccccc21 [III-58] | 2.65 nM | 3.13 nM
O=C1c2c(O)c(=O)ccn2N([C@H]2c3cc(F)ccc3CSc3ccccc32)[C@@H]2COCCN12 [III-14] | 15 nM | 15.7 nM
C[C@H]1CC[C@@H]2N(C1)C(=O)c1c(O)c(=O)ccn1N2[C@@H]1c2ccccc2SCc2c1ccc(F)c2F [III-40] | 2.99 nM | 2.95 nM
O=C1c2c(O)c(=O)ccn2N([C@@H]2c3ccccc3SCc3c2ccc(F)c3F)[C@@H]2CCCCN12 [III-59] | 0.57 nM | 3.11 nM
CC1(C)CCN2C(=O)c3c(O)c(=O)ccn3N([C@H]3c4ccc(F)cc4CSc4ccccc43)[C@@H]2C1 [III-47] | 2.25 nM | 2.53 nM
CC1(C)CCN2C(=O)c3c(O)c(=O)ccn3N([C@@H]3c4ccccc4SCc4cccc(F)c43)[C@@H]2C1 [III-45] | 1.63 nM | 3.07 nM
O=C1c2c(O)c(=O)ccn2N([C@@H]2c3ccccc3SCc3c2cccc3C(F)(F)F)[C@@H]2CCCCN12 [III-27] | 4.19 nM | 3.61 nM
O=C1c2c(O)c(=O)ccn2N([C@H]2c3ccccc3CSc3ccccc32)[C@@H]2CCCCN12 [III-25] | 2.96 nM | 2.35 nM
C[C@@H]1CCN2C(=O)c3c(O)c(=O)ccn3N([C@H]3c4ccc(F)cc4CSc4ccccc43)[C@@H]2C1 [III-50] | 2.55 nM | 4.36 nM
C[C@H]1CN2C(=O)c3c(O)c(=O)ccn3N([C@@H]3c4ccccc4SCc4c3ccc(F)c4F)[C@@H]2CO1 [III-51] | 2.22 nM | 2.58 nM
C[C@H]1COC[C@@H]2N1C(=O)c1c(O)c(=O)ccn1N2[C@@H]1c2cccc(F)c2SCc2cccc(F)c21 [III-28] | 10.7 nM | 5.67 nM
C[C@H]1COC[C@@H]2N1C(=O)c1c(O)c(=O)ccn1N2[C@H]1c2ccccc2CSc2ccccc21 [III-32] | 27.6 nM | 7.23 nM
O=C1c2c(O)c(=O)ccn2N([C@@H]2c3ccccc3SCc3c2ccc(F)c3F)[C@@H]2CC3(CCOCC3)CCN12 [III-23] | 1.48 nM | 0.86 nM
O=C1c2c(O)c(=O)ccn2N([C@@H]2c3ccccc3SCc3c(F)cccc32)[C@@H]2COCCN12 [III-19] | – | 1.43 nM
O=C1c2c(O)c(=O)ccn2N([C@@H]2c3ccccc3SCc3c2ccc(F)c3F)[C@@H]2CC3(CCN12)CC3 [III-36] | – | 2.45 nM
O=C1c2c(O)c(=O)ccn2N(C2c3ccccc3CCc3ccccc32)[C@@H]2COCCN12 [III-56] | 6.64 nM | 4.99 nM

Structure (SMILES) | IC50 [1] | EC50 (influenza virus)
O=C1c2c(O)c(=O)ccn2N([C@@H]2c3ccccc3SCc3c2ccc(F)c3F)[C@@H]2CCC(F)(F)CN12 [III-34] | 4.69 nM | 2.85 nM
O=C1c2c(O)c(=O)ccn2N([C@@H]2c3ccccc3SCc3c2ccc(F)c3F)[C@@H]2CO[C@H](C(F)(F)F)CN12 [III-37] | 4.24 nM | 3.43 nM
C[C@@H]1CC[C@@H]2N(C1)C(=O)c1c(O)c(=O)ccn1N2[C@@H]1c2ccccc2SCc2c1ccc(F)c2F [III-42] | 3.93 nM | 2.64 nM
O=C1c2c(O)c(=O)ccn2N([C@H]2c3ccc(F)cc3CSc3ccccc32)[C@@H]2COCCN12 [III-3] | 2.22 nM | 3.39 nM
O=C1c2c(O)c(=O)ccn2N([C@@H]2c3cccc(Cl)c3SCc3cccc(F)c32)[C@@H]2COCCN12 [III-16] | 4.33 nM | 10.2 nM
C[C@H]1COC[C@@H]2N1C(=O)c1c(O)c(=O)ccn1N2[C@@H]1c2ccccc2SCc2cccc(F)c21 [III-31] | 18.5 nM | 3.17 nM
CC1(C)CCN2C(=O)c3c(O)c(=O)ccn3N([C@@H]3c4ccccc4SCc4c3ccc(F)c4F)[C@@H]2C1 [III-33] | – | 2.36 nM
O=C1c2c(O)c(=O)ccn2N([C@@H]2c3ccccc3SCc3c2ccc(F)c3F)[C@@H]2CC3(CCN12)COC3 [III-29] | 0.87 nM | 0.66 nM
O=C1c2c(O)c(=O)ccn2N([C@H]2c3ccccc3CSc3ccccc32)[C@@H]2COCCN12 [III-1] | 10.9 nM | 2.1 nM
C[C@@H]1CCN2C(=O)c3c(O)c(=O)ccn3N([C@@H]3c4ccccc4SCc4c3ccc(F)c4F)[C@@H]2C1 [III-41] | 2.1 nM | 2.17 nM
O=C1c2c(O)c(=O)ccn2N([C@@H]2c3ccccc3SCc3cccc(F)c32)[C@@H]2COCCN12 [III-10] | 4.05 nM | 3.46 nM
O=C1c2c(O)c(=O)ccn2N([C@@H]2c3ccccc3SCc3c2ccc(F)c3F)[C@@H]2CSCCN12 [III-9] | 2.17 nM | 10.9 nM
C[C@H]1CN2C(=O)c3c(O)c(=O)ccn3N([C@H]3c4ccc(F)cc4CSc4ccccc43)[C@@H]2CO1 [III-52] | 3.62 nM | 3.28 nM
C[C@@H]1CCN2C(=O)c3c(O)c(=O)ccn3N([C@@H]3c4ccccc4SCc4cccc(F)c43)[C@@H]2C1 [III-49] | 6.79 nM | 4.17 nM
O=C1c2c(O)c(=O)ccn2N([C@@H]2c3ccccc3SCc3cccc(O)c32)[C@@H]2COCCN12 [III-24] | 13.3 nM | 24.1 nM
O=C1c2c(O)c(=O)ccn2N([C@H]2c3cc(F)c(F)cc3CSc3ccccc32)[C@@H]2COCCN12 [III-12] | 2.18 nM | 3.38 nM
O=C1c2c(O)c(=O)ccn2N([C@H]2c3ccc(F)cc3CSc3ccccc32)[C@@H]2CC(F)(F)CCN12 [III-46] | 2.91 nM | 3.18 nM
C[C@@H]1COC[C@@H]2N1C(=O)c1c(O)c(=O)ccn1N2[C@@H]1c2ccccc2SCc2c1ccc(F)c2F [III-22] | 3.46 nM | 3.07 nM
O=C1c2c(O)c(=O)ccn2N([C@H]2c3ccc(F)cc3CSc3ccccc32)[C@@H]2C[C@H](C(F)(F)F)CCN12 [III-43] | 3.9 nM | 3.18 nM
